Test results as given in publication PMC11467779, “New anti-ovarian cancer quinolone derivatives acting by modulating microRNA processing machinery” (RSC Medicinal Chemistry, 2024).

How the values were obtained:
MCF-7 (breast cancer) = experiment: Proliferation of MCF-7 cells (trypan blue count); assay type: cell-based, human; details: 30 μM, 72 hours
Procedure: A2780 and SKOV-3 cells were treated with 50 μM of 33 for 72 h before RNA and protein extraction and expression analyses. A2780 and A2780 CIS were treated with 33 (30 μM) and/or cisplatin (1 μM, Sigma-Aldrich) for 48 hours while MCF-7, A549 and HCT-116 were treated with 33 (30 μM) for 72 hours. Total cell number and viability have been assessed using Trypan Blue Solution (Thermo Fisher Scientific) and Countess™ 3 Automated Cell Counter (Thermo Fisher Scientific).

miR-21-5p biogenesis = experiment: miR-21-5p luciferase reporter (psi-R21 / psi-CTRL) in HeLa cells; assay type: cell-based, human
Procedure: HeLa cells were transfected with 10 ng of psi-R21 or psi-CTRL using Lipofectamine™ 2000 (Thermo Fisher Scientific) and after 48 hours were treated with either enoxacin or 33 at 20 μM and 50 μM. After 6 hours Renilla luciferase (RLuc) and firefly luciferase (FLuc) activities were measured using the Dual-Luciferase® Reporter Assay System (Promega), following the manufacturer's instructions, and GloMax® Discover Microplate Reader (Promega).
The binding site for miR-21 was cloned into psiCHECK™-2 Vector (Promega), downstream the Renilla cDNA, by inverted PCR using the following oligonucleotides: 21MRE_FW […]; 21MRE_REV […]. The resulting construct was named psi-R21.

WT HCCLM3 cells = experiment: Antiproliferative effect on WT HCCLM3 cells (CCK-8); assay type: cell-based, human; details: 30 μM, 48 hours
Procedure: HCCLM3 and SK-Hep-1 cells were seeded into 96-well plates at a density of 10 000 cells per well and allowed to adhere overnight. Subsequently, the cells were treated with the following substances: 0.1% DMSO as the negative control, various concentrations of the test compounds, and 125 μM enoxacin as the positive control. After 48 h of incubation, the original culture medium was removed, and the cells were washed twice with PBS. Then, 100 μL of DMEM culture medium containing 10% CCK-8 (Bimake, USA) was added to each well. The plates were incubated for 30 minutes at 37 °C. To determine the […], measurements were taken at a wavelength of 450 nm using a Varioskan from Thermo Fisher Scientific.

TRBP = target: T1, TRBP (Homo sapiens, UniProt Q15633); experiment: Surface plasmon resonance (SPR) assay on TRBP; assay type: binding; details: versus enoxacin
T1 sequence (Q15633 1-366): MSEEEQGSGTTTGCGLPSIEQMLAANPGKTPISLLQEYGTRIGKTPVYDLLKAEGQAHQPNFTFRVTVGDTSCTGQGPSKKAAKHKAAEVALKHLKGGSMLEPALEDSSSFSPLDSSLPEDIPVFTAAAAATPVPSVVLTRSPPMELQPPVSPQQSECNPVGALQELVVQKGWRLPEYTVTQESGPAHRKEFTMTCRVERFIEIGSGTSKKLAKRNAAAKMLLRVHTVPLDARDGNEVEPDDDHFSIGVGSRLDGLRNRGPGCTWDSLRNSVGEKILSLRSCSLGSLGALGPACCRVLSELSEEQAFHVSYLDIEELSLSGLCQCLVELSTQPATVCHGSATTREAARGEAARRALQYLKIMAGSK
Procedure: Following the manufacturer's instructions, the BIAcore Sensor Chip (CM5) underwent initial activation using a mixture of NHS and EDC. Subsequently, recombinant human TRBP proteins at a concentration of 20 μg mL^−1 (in 10 mM sodium acetate, pH 4.0) were injected over the CM5 chip. After reaching a coupling level of 12 000 RU, a 1 M ethanolamine hydrochloride was injected to block the chip, preventing nonspecific binding. All the compounds were diluted in HBS-EP buffer (10 mM HEPES, pH 7.4, 3 mM EDTA, 150 mM NaCl, and 0.005% surfactant P-20) with 1% DMSO. Samples were injected at a rate of 10 μL min^−1 for 120 seconds, followed by a dissociation phase of 90 seconds. After each cycle, a 50% DMSO solution was used to regenerate the chip surface and restore the sensorgram baseline. Binding analysis was performed using BIA evaluation version 3.2 software, determining the […] (KD).

SKOV-3 cell line = experiment: Antiproliferative effect against the SKOV-3 cell line (GI50, cell count); assay type: cell-based, human
Procedure: SKOV-3, A2780 and A2780 CIS were cultured and maintained, as previously described,[50] at 37 °C in RPMI 1640 medium (Euroclone) supplemented with 10% fetal bovine serum (FBS; Euroclone), L-glutamine and penicillin/streptomycin (SIGMA-ALDRICH). OVCA433, HEK-293T, HeLa, HCCLM3, SK-Hep-1, MCF-7, A549 and HCT-116 cells were maintained in DMEM medium (Euroclone) containing 10% FBS (Euroclone), L-glutamine and penicillin/streptomycin (SIGMA-ALDRICH). Wi-38 cells were cultured in DMEM medium (Euroclone) supplemented with 10% FBS (Euroclone), L-glutamine and penicillin/streptomycin (SIGMA-ALDRICH), and 1% non-essential amino acids (NEAA; Euroclone). The cultures were maintained in a constant temperature incubator at 37 °C with 5% CO2. […] Once cell adhesion had been promoted, the compounds were added to the culture medium. After 72 hours of treatment, the cells were counted, and the data analyzed by linear regression. Each experiment was carried out three times in triplicate and three separate cell counts were made for each sample. […] Afterwards, the concentration range was narrowed to the relative value obtained in the first evaluation in order to obtain an accurate value.

binding affinity for TRBP, fold stronger than enoxacin (TRBP): approximately 40 fold
GI50 (SKOV-3 cell line; Homo sapiens, SK-OV-3, 72 h, 50% cell growth inhibition, 72 hours of treatment, cell count, ND = activity not dose dependent): 13.5 ± 1.45 µM
GI50 SKOV-3, fold lower than enoxacin (SKOV-3 cell line; versus enoxacin): about 9 fold
Structure (SMILES): O=C(O)c1cn(C2CC2)c2cc(N3CCc4ccccc4C3)c(F)cc2c1=O [Compound 33, 1-Cyclopropyl-7-(3,4-dihydroisoquinolin-2(1H)-yl)-6-fluoro-4-oxo-1,4-dihydroquinoline-3-carboxylic acid]
effect on MCF-7 cell proliferation (MCF-7 (breast cancer)): significant inhibitory effect on cell proliferation
miRNA enhancing effect: Renilla luciferase activity, psi-R21 construct (miR-21-5p biogenesis; 50 μM, 6 hours): decrease in Renilla luciferase activity
Renilla luciferase activity, control construct psi-CTRL (miR-21-5p biogenesis; construct lacking the miR-21-5p binding site): no significant variation
reduction of viability of WT HCCLM3 cells (WT HCCLM3 cells): about 50%
